Data: US20260365684A1, “PHYTOSPHINGOSINE-3,4-CYCLICPHOSPHATE COMPOUND AND PHARMACEUTICAL COMPOSITION COMPRISING THE SAME” (AXCESO BIOPHARMA CO., LTD., priority 2022, published 2026)

Tests used:
SIRT1 = conditions: known value; read-out: EC50 as SIRT1 activator; cited from earlier work
C57BL/6 mice = assay: Survival in sepsis induced by cecal ligation and puncture (CLP); assay type: in vivo, mouse; conditions: 100 ng/mouse (5 μg/kg) at 6 and 16 hours after CLP; FIG. 8
Method: C57BL/6 mice aged 7-8 weeks were purchased from Jabio (Suwon, Gyeonggi-do) and sepsis was induced by cecal ligation and puncture (CLP).
Specifically, after anesthesia using 150 mg/kg of ketamine and 17.5 mg/kg of rompun, an abdominal incision of 1-2 cm was made to expose the cecum to induce sepsis. The cecum was ligated with 6-0 silk sutures at the distal end of the ileocecal valve, and a puncture was made with an 18-gauge needle. The perforated cecum was gently squeezed to push out 1-2 cm of feces, and the cecum was then retracted back into the abdominal cavity. The abdomen was then closed and pre-warmed normal saline (2.5 mL/100 g body weight) was injected into the mouse abdominal cavity immediately after the procedure. 6 and 16 hours after CLP treatment, the compound of formula (1a-1) was dissolved in phosphate buffered saline (PBS) and injected intravenously at 100 ng/mouse (5 μg/kg), and survival was examined for 10 days. […] In addition, as a drug-negative control, survival was examined in mice that received only PBS after CLP treatment.
For comparison, we also examined the survival of a control group treated with fingolimod (FTY720), a known S1P modulator, instead of the compound of formula (1a-1) under the same conditions.

α-synuclein = α-synuclein expression in differentiated SH-SY5Y dopaminergic neurons by western blot; assay type: cell-based, human; conditions: differentiated dopaminergic neurons treated with rotenone (RT); FIG. 6
Method: (§1) To analyze the effect on the expression of tyrosine hydroxylase (TH) and α-synuclein as neuron-specific proteins, western blot was performed.
(§2) SH-SY5Y cell line was treated with retinoic acid and 12-O-tetradecanoylphorbol-13-acetate (TPA) to induce differentiation into TH-secreting neurons for 6 days.
(§3) Differentiated dopaminergic neurons were lysed in PRO-PREP (Intronbio), a cell lysis solution containing protease inhibitor cocktail (Gendepot), and electrophoresed in 10% SDS polyacrylamide gels at 20 μg/well. Transfer was performed using PVDF (Merck millipore) as a membrane, and tyrosine hydroxylase antibody, «-synuclein antibody (Cell signaling), and β-actin antibody (Santa Cruz) were used for reaction for more than 2 hours. Protein expression was detected by staining with ECL substrate (Biorad) for development and graphed using the image J program.

[1] = system: tyrosine hydroxylase (TH); assay: Tyrosine hydroxylase expression in differentiated SH-SY5Y dopaminergic neurons by western blot; assay type: cell-based, human; conditions: differentiated dopaminergic neurons treated with rotenone (RT); FIG. 6
Method: as §1, §2, §3

## CCCCCCCCc1ccc(CCC(N)(CO)CO)cc1 [FTY720, fingolimod, reference compound]
C57BL/6 mice
  survival: did not improve survival

## C=C(C)[C@H]1Cc2c(ccc3c2O[C@@H]2COc4cc(OC)c(OC)cc4[C@@H]2C3=O)O1 [rotenone, reference compound]
α-synuclein
  expression of α-synuclein: the expression of α-synuclein is increased
[1]
  expression of TH: the expression of TH is decreased
